What was measured:
[1] = Measurement of drug concentrations in the brain after foot-tapping; assay type: in vivo; conditions: male gerbil, 0.1 mg/kg iv, after foot-tapping was finished
Description: A male gerbil (Japan SLC) was anesthetized with isoflurane, and 0.1 mg/kg of a test compound was administered from the jugular vein. After four hours. GR73632 (5 pmol/5 μl saline), which is an NK1 receptor agonist, was administered into the cerebral ventricle at the part 1 mm lateral to and 4.5 mm below the bregma in the head, under anesthesia with isoflurane. After the administration, the gerbil was moved to an observation cage, and the foot-tapping period during 30 minutes after the recovery of the righting reflex was measured. The foot-tapping inhibition rate (%) of each test compound was calculated by the following equation. Foot-tapping inhibition rate (%)−{1−(Fool-tapping period when test compound was administered)/(Foot-tapping period when solvent was administered)}×100 (2) Measurement of Drug Concentrations
After foot-tapping was finished, laparotomy was performed immediately under anesthesia with ether, and a blood sample was taken from the abdominal vena cava. At the same lime, the brain was extracted. Through a quantitative analysis using liquid chromatography-mass spectrometry (LC/MS), the concentrations of the test compound in the plasma and the brain were measured.
In the table, Ex. No. means the Example number. Inhibition (%) is the loot-tapping inhibition rate, and Cone. (nM) is the drug concentration in the brain.

human NK1 receptor = human NK1 receptor (Homo sapiens (Human), UniProt P25103); test: Inhibitory effect on human NK1 receptor (substance P-induced increase in intracellular calcium concentration); assay type: cell-based; conditions: substance P 1 μM, compound 0.1 μM; read-out: SPRR (%), Substance P-Response Remaining (intracellular calcium concentration)
Chain of human NK1 receptor (P25103 whole entry): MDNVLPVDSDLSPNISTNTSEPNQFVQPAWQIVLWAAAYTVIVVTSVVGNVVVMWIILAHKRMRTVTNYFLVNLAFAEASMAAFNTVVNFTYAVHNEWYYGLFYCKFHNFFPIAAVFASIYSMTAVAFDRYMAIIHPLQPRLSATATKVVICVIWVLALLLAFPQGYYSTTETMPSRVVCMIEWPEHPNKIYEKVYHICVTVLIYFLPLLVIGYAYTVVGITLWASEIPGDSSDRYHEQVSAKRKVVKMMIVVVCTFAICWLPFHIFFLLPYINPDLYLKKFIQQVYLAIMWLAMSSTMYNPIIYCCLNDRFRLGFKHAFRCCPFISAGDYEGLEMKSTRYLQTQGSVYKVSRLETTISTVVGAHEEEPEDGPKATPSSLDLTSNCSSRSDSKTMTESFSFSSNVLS
Description: Inhibitory Effect on Human NK1 Receptor
(1) Preparation of Human NK1 Receptor-Expressing Cells
Human NK1 receptor-expressing cells were prepared by the same methods as those described in 2-3 of Test Example 1.
(2) Study on Inhibitory Effect on Increase in Intracellular Calcium Concentration
The human NK1 receptor-expressing cells were washed with 300 μL/well of a washing solution (20 mM HEPES/Hank's Balanced Salt Solution (HBSS) pH 7.3). A fluorescent calcium indicator (Fluo-4 Direct Calcium Assay Kit, Life Technologies, containing 0.42 mM probenecid and 0.1% bovine serum albumin, prepared according to the protocol of the product) was added to the wells at 150 μL/well, and the plate was incubated at 37° C. for 30 minutes in an incubator. Then. DMSO solutions of a test compound, which were prepared at an 80-time higher concentration using 100% dimethyl sulfoxide (DMSO), were added to the wells at 2.5 μL/well (final concentrations of 0.1, 1 and 10 μM), and the solutions were mixed. Then, the plate was further incubated at […] for 30 minutes in an incubator. After 30 minutes, the intracellular calcium concentrations were measured immediately.
The intracellular calcium concentrations were each measured as a fluorescent signal using FDSS (registered trademark) 7000 (Hamamatsu Photonics). A substance P (Peptide Institute. Inc.) solution which was prepared at 0.4 μM or 4 μM using an assay buffer (20 mM HEPES/Hank's Balanced Salt Solution (HBSS) pH 7.3, containing 0.1% bovine serum albumin) was added automatically to each well at 50 μL/well (final concentration of 0.1 or 1 μM) 10 seconds after starting reading, and the fluorescent signal was measured up to 120 seconds.
The intracellular calcium concentration (%) of the cells to which a test compound was added was calculated by the equation below, where the fluorescent signal of the group to which the vehicle (DMSO) was added was regarded as 100%, and the fluorescent signal before the addition of substance P was regarded as 0%. Intracellular calcium concentration (%)—(Fluorescent signal of test compound addition group)/(Fluorescent signal of vehicle addition group)×100
The intracellular calcium concentration (%) calculated was regarded as the remaining agonist activity of substance P (Substance P-Response Remaining: SPRR). In the table, Ex. No. means the Example number. SPRR (%) is the value obtained when the concentration of substance P was 1 μM and the concentration of the compound was 0.1 μM.

human CYP3A4 = human CYP3A4 (Homo sapiens (Human), UniProt P08684); test: Inhibitory effect on CYP3A4; assay type: in vitro ADME; conditions: 30-minute pre-incubation, Luciferin-IPA substrate; read-out: IC50 (μM), CYP3A4 inhibition
Chain of human CYP3A4 (P08684 whole entry): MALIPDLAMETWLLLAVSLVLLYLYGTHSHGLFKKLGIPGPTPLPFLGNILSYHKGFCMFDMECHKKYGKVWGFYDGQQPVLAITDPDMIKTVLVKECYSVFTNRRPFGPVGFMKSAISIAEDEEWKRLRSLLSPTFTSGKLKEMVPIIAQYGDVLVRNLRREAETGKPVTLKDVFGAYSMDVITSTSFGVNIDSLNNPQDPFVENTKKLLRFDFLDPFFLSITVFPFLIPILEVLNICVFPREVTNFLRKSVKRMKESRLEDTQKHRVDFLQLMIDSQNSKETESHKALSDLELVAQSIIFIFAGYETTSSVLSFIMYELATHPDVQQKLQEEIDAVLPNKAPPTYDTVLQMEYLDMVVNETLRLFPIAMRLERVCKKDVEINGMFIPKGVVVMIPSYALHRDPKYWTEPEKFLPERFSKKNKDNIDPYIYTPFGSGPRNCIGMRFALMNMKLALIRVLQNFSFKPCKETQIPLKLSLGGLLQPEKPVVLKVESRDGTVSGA
Description: Inhibitory Effect on CYP3A4
Enzyme reaction was performed by incubating in a potassium phosphate buffer solution (pH 7.4) containing 1 nM to 20 μM test compound, 3.2 mM magnesium chloride, 0.2 pmol human CYP3A4 (BD Biosciences), 0.5 mM reduced nicotinamide adenine dinucleotide phosphate (NADPH) and 3 μM Luciferin-IPA (Promega) at 37° C. for 10 minutes. The volume of the reaction solution was 50 μL/well. The 30-minute pre-incubation group was incubated at 37° C. for 30 minutes before adding tire substrate, the Luciferin-IPA solution (12.5 μL/well). At the end of the enzyme reaction, 50 μL/well of a Luciferin detection reagent (Promega) was added to the wells, and the plate was left at room temperature for 20 minutes. Then, the emission intensities were measured with Infinite M1000 (TECAN). The enzyme activities (%) relative to the value of the group to which the test compound was not added were calculated.

Conc. (nM), drug concentration in the brain [1]	remaining activity at 0.1 µM (human NK1 receptor)	IC50 (human CYP3A4)	SMILES
24 nM	20%	13 µM	Cc1cc(F)ccc1-c1cc(C2CCC(C(=O)O)CC2)ncc1N(C)C(=O)C(C)(C)c1cc(C(F)(F)F)cc(C(F)(F)F)c1 (stereo not drawn) [Example 1, 4-[5-{[2-(3,5-Bistrifluoromethylphenyl)-2-methylpropionyl]methylamino}-4-(4-fluoro-2-methylphenyl)pyridin-2-yl]cyclohexanecarboxylic Acid]
42 nM	8.6%	11 µM	Cc1cc(F)ccc1-c1cc(C2CCC(C(C)C(=O)O)CC2)ncc1N(C)C(=O)C(C)(C)c1cc(C(F)(F)F)cc(C(F)(F)F)c1 (stereo not drawn) [Example 10, 2-{4-[5-{[2-(3,5-Bistrifluoromethylphenyl)-2-methylpropionyl]methylamino}-4-(4-fluoro-2-methylphenyl)pyridin-2-yl]cyclohexyl}propionic Acid]
72 nM	5.4%	2.7 µM	Cc1cc(F)ccc1-c1cc([C@H]2CC[C@H](C(C)(C)C(=O)O)CC2)ncc1N(C)C(=O)C(C)(C)c1cc(C(F)(F)F)cc(C(F)(F)F)c1 [Example 11, trans-2-{4-[5-{[2-(3,5-Bistrifluoromethylphenyl)-2-methylpropionyl]methylamino}-4-(4-fluoro-2-methylphenyl)pyridin-2-yl]cyclohexyl}-2-methylpropionic Acid]
51 nM	5.1%	8.2 µM	Cc1cc(F)ccc1-c1cc([C@H]2CC[C@H](CC(=O)O)CC2)ncc1N(C)C(=O)C(C)(C)c1cc(C(F)(F)F)cc(C(F)(F)F)c1 [Example 13, trans-{4-[5-{[2-(3,5-Bistrifluoromethylphenyl)-2-methylpropionyl]methylamino}-4-(4-fluoro-2-methylphenyl)pyridin-2-yl]cyclohexyl}acetic acid]
40 nM	22%	7.5 µM	Cc1cc(F)ccc1-c1cc([C@H]2CC[C@@H](CC(=O)O)CC2)ncc1N(C)C(=O)C(C)(C)c1cc(C(F)(F)F)cc(C(F)(F)F)c1 [Example 14, cis-{4-[5-{[2-(3,5-bistrifluoromethylphenyl)-2-methylpropionyl]methylamino}-4-(4-fluoro-2-methylphenyl)pyridin-2-yl]cyclohexyl}acetic acid]

Further lines, the molecule ahead of its results:

SMILES	Conc. (nM), drug concentration in the brain [1]	remaining activity at 0.1 µM (human NK1 receptor)	IC50 (human CYP3A4)
Cc1cc(F)ccc1-c1cc(C2CCCC(CC(=O)O)C2)ncc1N(C)C(=O)C(C)(C)c1cc(C(F)(F)F)cc(C(F)(F)F)c1 (stereo not drawn) [Example 3, {3-[5-{[2-(3,5-Bistrifluoromethylphenyl)-2-methylpropionyl]methylamino}-4-(4-fluoro-2-methylphenyl)pyridin-2-yl]cyclohexyl}acetic Acid]	48 nM	36%	9.4 µM
Cc1cc(F)ccc1-c1cc(C2(C)CCCC(CC(=O)O)C2)ncc1N(C)C(=O)C(C)(C)c1cc(C(F)(F)F)cc(C(F)(F)F)c1 (stereo not drawn) [Example 4, {3-[5-{[2-(3,5-Bistrifluoromethylphenyl)-2-methylpropionyl]methylamino}-4-(4-fluoro-2-methylphenyl)pyridin-2-yl]-3-methylcyclohexyl}acetic Acid]	35 nM	57%	7.1 µM
Cc1cc(F)ccc1-c1cc(C2CCC3(CC2)CC3C(=O)O)ncc1N(C)C(=O)C(C)(C)c1cc(C(F)(F)F)cc(C(F)(F)F)c1 (stereo not drawn) [Example 7, 6-[5-{[2-(3,5-Bistrifluoromethylphenyl)-2-methylpropionyl]methylamino}-4-(4-fluoro-2-methylphenyl)pyridin-2-yl]spiro[2.5]octane-1-carboxylic Acid]	24 nM	9.4%	11 µM
Cc1cc(F)ccc1-c1cc(C2CCC(CC(=O)O)CC2)nc(C#N)c1N(C)C(=O)C(C)(C)c1cc(C(F)(F)F)cc(C(F)(F)F)c1 (stereo not drawn) [Example 8, {4-[5-{[2-(3,5-Bistrifluoromethylphenyl)-2-methylpropionyl]methylamino}-6-cyano-4-(4-fluoro-2-methylphenyl)pyridin-2-yl]cyclohexyl}acetic Acid]	59 nM	31%	6.1 µM
Cc1ccccc1-c1cc(C2CCC(CC(=O)O)CC2)ncc1N(C)C(=O)C(C)(C)c1cc(C(F)(F)F)cc(C(F)(F)F)c1 (stereo not drawn) [Example 9, {4-[5-{[2-(3,5-Bistrifluoromethylphenyl)-2-methylpropionyl]methylamino}-4-ortho-tolylpyridine-yl]-cyclohexyl}acetic Acid]	47 nM	42%	6.9 µM
Cc1ccccc1-c1cc(C2CCC(CC(=O)O)CC2)nc(C#N)c1N(C)C(=O)C(C)(C)c1cc(C(F)(F)F)cc(C(F)(F)F)c1 (stereo not drawn) [Example 16, [4-(5-{[2-(3,5-Bistrifluoromethylphenyl)-2-methylpropionyl]methylamino}-6-cyano-4-ortho-tolylpyridin-2-yl)cyclohexyl]acetic Acid]	64 nM	37%	3.1 µM
Cc1cc(F)ccc1-c1cc([C@H]2CC[C@H](CC(=O)O)CC2)nc(C#N)c1N(C)C(=O)C(C)(C)c1cc(C(F)(F)F)cc(C(F)(F)F)c1 [Example 20, trans-{4-[5-{[2-(3,5-Bistrifluoromethylphenyl)-2-methylpropionyl]methylamino}-6-cyano--4-(4-fluoro-2-methylphenyl)-pyridin-2-yl]cyclohexyl}acetic acid]	92 nM	2.8%	5.5 µM
Cc1cc(F)ccc1-c1cc([C@H]2CC[C@@H](CC(=O)O)CC2)nc(C#N)c1N(C)C(=O)C(C)(C)c1cc(C(F)(F)F)cc(C(F)(F)F)c1 [Example 21, cis-{4-[5-{[2-(3,5-bistrifluoromethylphenyl)-2-methylpropionyl]methylamino}-6-cyano-4-(4-fluoro-2-methylphenyl)pyridin-2-yl]cyclohexyl}acetic acid]	92 nM	36%	4.2 µM
